The source made the active and inactive calls.
Key:
[1] = tested on: HEK293; assay: NOD1 signaling inhibitors, primary screen, cell-based, luminescence, uHTS (AID 1578); type: functional; conditions: Homo sapiens
[2] = insulin promoter down-regulators in MIN6 cells, imaging, high-content screening, mouse beta cells (AID 1628); type: functional
[3] = tested on: HEK293; assay: cells; type: functional, cell-based; conditions: Homo sapiens
[4] = cytotoxicity in MIN6 insulinoma cells, dose response, cytotoxicity control, cell-based, mouse insulinoma (AID 2122); type: functional;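 further: confirmatory high-throughput counterscreen run to flag cytotoxic compounds; mouse MIN-6 beta cells carrying an insulin promoter eGFP reporter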
[5] = tested on: HEK293; assay: cells; type: functional, cell-based; conditions: Homo sapiens; remark: listed apart in the source
[6] = tested on: HEK293; assay: NOD2 signaling inhibitors in MDP-stimulated cells, cell-based, uHTS, luminescence (AID 2001); type: functional; conditions: Homo sapiens
[7] = tested on: INS1; assay: beta cell apoptosis inhibitors, cytokine rescue, dose response, luminescence, retest (AID 449756); type: functional, cell-based; conditions: Rattus norvegicus;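 further: cell death triggered by IL-1 beta plus TNF-alpha plus IFN-gamma mixture; protective hits raise ATP signal compared with cytokine alone wells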
[8] = Shn3 3'UTR reporter inhibitors, dose response, cell-based, Clone20 osteoblasts, firefly luciferase, cherry-picked (AID 624132); type: functional;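 further: firefly luciferase luminescence from reporter carrying the Shn3 3'UTR in osteoblasts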
[9] = HepG2 cell cytotoxicity, dose response, cytotoxicity control for Shn3 inhibitor project, CellTiter-Glo, cherry-picked (AID 624134); type: functional, cell-based
[10] = control 3'UTR Renilla luciferase suppression, dose response, counter-screen for Shn3 inhibitor project, cell-based, Clone20-Shn3RL, cherry-picked (AID 624133); type: functional
[11] = reduction of Shn3 3'UTR firefly luciferase signal, dose response, Schnurri-3 inhibitor project, cell-based, Clone20 osteoblasts, cherry-pick, set 2 (AID 720490); type: functional;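 further: actives lower the luminescence signal as inhibitors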
[12] = tested on: Streptococcus sp. 'group A'; assay: growth inhibition of control SK(-) GAS strain, dose response, counter-screen for streptokinase expression inhibitor project, luminescence, kanamycin, BacTiterGlo, confirmation (AID 1900); type: functional, organism-based
[13] = target: T1, Streptokinase A (Streptococcus pyogenes serotype M1, UniProt P10520); assay: S. pyogenes streptokinase expression inhibitors, potency, dose response, plasminogen activation absorbance, OD405 (AID 1914); type: functional, Streptococcus pyogenes M1 GAS;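 further: secreted streptokinase activity via plasminogen activation per viability signal from cell pellet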
T1 sequence (P10520 whole entry): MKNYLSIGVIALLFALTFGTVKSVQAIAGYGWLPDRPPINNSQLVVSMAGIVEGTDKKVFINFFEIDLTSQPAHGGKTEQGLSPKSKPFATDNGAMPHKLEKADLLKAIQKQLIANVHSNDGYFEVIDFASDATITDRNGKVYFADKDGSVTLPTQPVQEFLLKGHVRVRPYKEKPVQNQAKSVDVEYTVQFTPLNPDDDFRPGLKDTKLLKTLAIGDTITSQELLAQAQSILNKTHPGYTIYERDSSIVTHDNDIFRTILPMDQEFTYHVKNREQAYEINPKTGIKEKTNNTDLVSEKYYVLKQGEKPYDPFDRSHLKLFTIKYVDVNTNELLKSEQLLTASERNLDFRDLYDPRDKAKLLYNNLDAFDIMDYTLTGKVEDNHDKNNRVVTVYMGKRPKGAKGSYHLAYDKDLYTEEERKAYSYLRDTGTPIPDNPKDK

[14] = microbe, parasite or virus in culture; type: functional; conditions: Mycobacterium tuberculosis
[15] = growth suppression of PTEN-null colon cells, dose response, cell-based, HCT116 PTEN knockout (AID 1047); type: functional;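 further: HCT116 colon tumor cells with PTEN knocked out; cells exposed to compound for 60 hours before readout; potency for loss of cell viability measured by luminescence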
[16] = growth suppression of beta-catenin-knockout colon cells, dose response, cell-based, HCT116, human colon tumor (AID 1045); type: functional;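 further: HCT116 colon tumor cells with beta catenin knocked out; cells exposed to compound for 60 hours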
[17] = tested on: Streptococcus; assay: Group A Streptococcus viability loss, dose response, counter-screen for streptokinase expression inhibitor project, luminescence, BacTiterGlo (AID 1915); type: functional, organism-based;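 further: potency for reduction of bacterial viability or growth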
[18] = target: Disintegrin and metalloproteinase domain-containing protein 17 (Homo sapiens, UniProt P78536); assay: ADAM17 protease inhibitors, dose response, counter-screen for ADAM10 exosite inhibitor project, biochemical, quenched FRET substrate (AID 743253)
[19] = HEK293T cell cytotoxicity, dose response, cytotoxicity control, CellTiter-Glo luminescence, dry powder, set 2 (AID 720595); type: functional, cell-based; conditions: HEK293
[20] = target: Glucose-6-phosphate 1-dehydrogenase (Homo sapiens, UniProt P11413); assay: human G6PD enzyme inhibitors, dose response, selectivity assay for P. falciparum G6PD inhibitor project, biochemical, fluorescence (AID 504792); type: functional
[21] = Luminescence-based cell-based high throughput dose response assay to identify activators of the DAF-12 from the parasite S. stercoralis (ssDAF-12).; type: functional
[22] = target: T2, Oxysterols receptor LXR-beta (Homo sapiens, UniProt P55055); assay: LXR agonists, Gal4 luciferase reporter, dose response, counter-screen for ssDAF-12 agonist project, cell-based, luminescence, HEK293, S. stercoralis campaign (AID 720737); type: functional; conditions: read-out: IC50 (the source's name)
T2 sequence (P55055 whole entry): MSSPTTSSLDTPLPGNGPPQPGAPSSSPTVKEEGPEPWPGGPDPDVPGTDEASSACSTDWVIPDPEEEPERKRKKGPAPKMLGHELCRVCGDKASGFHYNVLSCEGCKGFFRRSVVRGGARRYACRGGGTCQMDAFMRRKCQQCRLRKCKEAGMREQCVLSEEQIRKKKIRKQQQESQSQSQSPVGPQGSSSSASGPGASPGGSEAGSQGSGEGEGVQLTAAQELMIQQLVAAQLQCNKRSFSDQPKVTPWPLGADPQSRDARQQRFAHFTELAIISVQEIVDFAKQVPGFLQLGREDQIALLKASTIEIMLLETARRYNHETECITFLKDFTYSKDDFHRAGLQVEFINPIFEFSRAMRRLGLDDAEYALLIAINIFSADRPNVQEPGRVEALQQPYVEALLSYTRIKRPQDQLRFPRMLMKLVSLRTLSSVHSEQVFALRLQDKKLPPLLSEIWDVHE

[23] = Late stage results for the probe development effort to identify inhibitors of Plasmodium falciparum gametocytes: Luminescence-based cell-based high throughput dose response assay to identify inhibitors of viability of late stage Plasmodium falciparum gametocytes.; type: functional
[24] = target: T2, Oxysterols receptor LXR-beta; type: functional, cell-based
[25] = cells
[26] = target: NAD-dependent protein deacylase sirtuin-5, mitochondrial (Homo sapiens, UniProt Q9NXA8); assay: SIRT5 desuccinylase inhibitors, dose response, biochemical, fluorescence imaging, cherry-pick, set 5 (AID 720591);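 further: desuccinylation of succinyl peptide AMC substrate read as fluorescence after trypsin release; potency of inhibitors that lower fluorescence and may act on trypsin instead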
NAD-dependent protein deacylase sirtuin-5, mitochondrial, sequence (Q9NXA8 whole entry): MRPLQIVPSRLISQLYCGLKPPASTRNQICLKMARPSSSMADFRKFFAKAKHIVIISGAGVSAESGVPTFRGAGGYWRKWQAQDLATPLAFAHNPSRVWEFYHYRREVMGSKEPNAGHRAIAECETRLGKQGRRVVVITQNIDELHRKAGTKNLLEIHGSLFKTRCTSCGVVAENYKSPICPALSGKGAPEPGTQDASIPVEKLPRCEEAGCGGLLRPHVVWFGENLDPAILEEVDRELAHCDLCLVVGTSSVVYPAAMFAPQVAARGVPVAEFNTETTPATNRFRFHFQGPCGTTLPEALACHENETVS

Disintegrin and metalloproteinase domain-containing protein 17, sequence (P78536 whole entry, the tested form may be a part): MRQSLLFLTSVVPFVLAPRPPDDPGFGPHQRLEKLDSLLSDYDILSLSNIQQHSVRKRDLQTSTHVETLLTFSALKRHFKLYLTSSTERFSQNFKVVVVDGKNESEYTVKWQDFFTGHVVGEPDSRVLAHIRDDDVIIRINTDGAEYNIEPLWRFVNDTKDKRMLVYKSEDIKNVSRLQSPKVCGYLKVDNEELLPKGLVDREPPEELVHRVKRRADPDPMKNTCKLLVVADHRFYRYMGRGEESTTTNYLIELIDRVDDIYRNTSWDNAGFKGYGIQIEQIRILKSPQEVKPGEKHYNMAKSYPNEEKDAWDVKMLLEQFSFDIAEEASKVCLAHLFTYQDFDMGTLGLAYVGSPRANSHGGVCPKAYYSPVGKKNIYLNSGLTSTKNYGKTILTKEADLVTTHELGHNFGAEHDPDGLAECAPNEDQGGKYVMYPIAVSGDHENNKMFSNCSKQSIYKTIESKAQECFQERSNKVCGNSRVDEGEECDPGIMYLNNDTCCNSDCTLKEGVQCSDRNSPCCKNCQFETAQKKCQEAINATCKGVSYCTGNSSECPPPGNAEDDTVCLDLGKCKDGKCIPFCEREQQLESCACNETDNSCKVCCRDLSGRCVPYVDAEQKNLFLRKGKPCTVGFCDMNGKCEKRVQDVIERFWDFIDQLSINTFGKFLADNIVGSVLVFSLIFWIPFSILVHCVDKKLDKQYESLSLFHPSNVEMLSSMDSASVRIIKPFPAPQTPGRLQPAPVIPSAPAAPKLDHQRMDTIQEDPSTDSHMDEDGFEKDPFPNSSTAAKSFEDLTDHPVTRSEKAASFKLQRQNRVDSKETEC
Glucose-6-phosphate 1-dehydrogenase, sequence (P11413 whole entry): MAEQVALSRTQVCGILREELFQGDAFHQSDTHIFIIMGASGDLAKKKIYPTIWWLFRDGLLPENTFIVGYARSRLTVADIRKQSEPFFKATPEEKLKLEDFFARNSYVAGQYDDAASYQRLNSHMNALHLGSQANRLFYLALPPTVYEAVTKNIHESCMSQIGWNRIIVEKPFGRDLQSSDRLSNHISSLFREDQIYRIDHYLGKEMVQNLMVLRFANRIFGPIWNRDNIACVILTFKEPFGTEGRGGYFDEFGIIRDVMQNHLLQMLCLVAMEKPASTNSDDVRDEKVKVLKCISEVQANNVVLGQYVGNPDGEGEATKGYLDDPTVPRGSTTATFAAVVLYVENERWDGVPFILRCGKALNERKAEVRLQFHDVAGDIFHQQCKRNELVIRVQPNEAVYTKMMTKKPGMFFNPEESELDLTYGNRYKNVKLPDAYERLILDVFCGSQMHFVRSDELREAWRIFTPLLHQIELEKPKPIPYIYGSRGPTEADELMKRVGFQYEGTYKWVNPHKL

For `O=C(c1cc(COc2ccc3ncccc3c2)on1)N1CCCCCC1`, the EC50 [1] was 1.85 µM (active), the IC50 [2] was 1.86 µM (active) and the IC50 [3] was 5.76 µM (active). For the same compound, the IC50 [4] was 1.13 µM (active), the IC50 [5] was > 20 µM (inactive) and the IC50 [6] was 13.2 µM (inactive). For the same compound, the AC50 [7] was 5.88 µM (active), the AC50 [8] was 703 nM (active) and the AC50 [9] was 43.6 µM (active). For the same compound, the AC50 [10] was 23.4 µM (active) and the AC50 [11] was 3.57 µM (active).

With `O=[N+]([O-])c1ccc(-c2nc(-c3cccs3)c(-c3cccs3)[nH]2)cc1` the EC50 [12] was 11.6 µM (active), the EC50 [13] was 20.1 µM (active) and the CC50 [14] was 19.5 µM (active). For the same compound, the EC50 [15] was 17.1 µM (active), the EC50 [16] was 19 µM (active) and the EC50 [17] was 17.3 µM (active). For the same compound, the IC50 [18] was > 69.5 µM (inactive).

For `CC1CCN(S(=O)(=O)c2ccc(C(=O)Nc3nnc(-c4ccco4)o3)cc2)CC1`, the AC50 [19] was > 52 µM (inactive).

With `COc1ccc(C(=O)/C=C2\Sc3ccccc3N2C)cc1` the IC50 [20] was > 80 µM (inactive), the IC50 [21] was > 67.6 µM (inactive) and the EC50 [22] was > 67.6 µM (inactive).

For `O=C(NC1=NCCS1)c1cc(-c2ccccc2)nn1-c1ccccc1`, the EC50 [12] was > 150 µM (not active), the EC50 [13] was 34.2 µM (active) and the EC50 [17] was > 150 µM (not active). The IC50 [23] was > 37.2 µM (inactive).

With `Cc1csc(NC(=O)c2oc3ccccc3c2C)n1` the EC50 [24] was > 67.6 µM (inactive) and the EC50 [25] was > 67.6 µM (inactive).

With `COc1ccc(NC(=O)c2cccnc2N2CCCC2)cc1` the AC50 [26] was > 30 µM (inactive).

— ChEMBL document CHEMBL1201862, “PubChem BioAssay data set” (2004)
